Assay results from patent publication US20240366589A1, “NHE3-BINDING COMPOUNDS AND METHODS FOR INHIBITING PHOSPHATE TRANSPORT” (Ardelyx, Inc., priority 2013, published 2024).

Tests used:
[1] = system: absorption of sodium from the intestinal lumen; test: Inhibition of intestinal sodium absorption: urinary sodium (uNa) 16 h after single oral dose in rats; type: in vivo, rat; conditions: for UNa (%): urinary Na excretion as % of vehicle
How it was run: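 Urinary sodium mass over the 16 h after one oral gavage dose, measured by cation-exchange ion chromatography, reported as percent of water-vehicle group; ANOVA plus Dunnett's post hoc test. Groups of six 8-week-old Sprague-Dawley rats, housed individually in metabolic cages post-dose, fed and watered freely.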

[2] = system: intestinal phosphate uptake; test: Pharmacodynamic study with 33P oral challenge in normal function rats; type: in vivo, rat; conditions: 10 mg/kg; for Pi uptake after 33P oral challenge: 8 mM Pi with 33P, dihydrochloride salts, FIG. 1A
Method: The compounds identified as Cpds 003, 004, and 005 (from Table E4, as their dihydrochloride salts) were tested for the ability to block intestinal phosphate uptake in rats. Rats were orally challenged with dosing solutions composed of 5 ml/kg (˜1.3 ml) of 8 mM Pi with ^33P and +/−10 mg/kg of test compound. Also included were dosing solutions further composed of either (i) 75 mM glucose+4 mM Ca or (ii) 4 mM Ca.

Rat NHE3 = biological target: T1, Rat NHE3 (Rattus norvegicus, UniProt P26433); test: Cell-based NHE3 activity under prompt conditions (OK cells, BCECF pH recovery), rat NHE3; conditions: Table E5; 001 free base, 002-005 dihydrochloride salt
T1 construct: expressed in transfected cells; host or cells: Opossum kidney (OK) cells (ATCC), electroporation
How it was run: (§1)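 Read-out: initial rate of BCECF-reported intracellular pH recovery via Na+/H+ antiport, fitted to pIC50. Opossum kidney cells transfected with rat or human NHE3; NH4Cl prepulse with 5 μM BCECF-AM, 30 min RT; Na+-free choline buffer 10 min.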

Human NHE3 [3] = biological target: T2, Human NHE3 (Homo sapiens, UniProt P48764); test: Cell-based NHE3 activity under persistent conditions (60 min incubation, washout), human NHE3; conditions: Table E5; dihydrochloride salt
T2 construct: expressed in transfected cells; host or cells: Opossum kidney (OK) cells (ATCC), electroporation
T2 sequence (P48764 26-834): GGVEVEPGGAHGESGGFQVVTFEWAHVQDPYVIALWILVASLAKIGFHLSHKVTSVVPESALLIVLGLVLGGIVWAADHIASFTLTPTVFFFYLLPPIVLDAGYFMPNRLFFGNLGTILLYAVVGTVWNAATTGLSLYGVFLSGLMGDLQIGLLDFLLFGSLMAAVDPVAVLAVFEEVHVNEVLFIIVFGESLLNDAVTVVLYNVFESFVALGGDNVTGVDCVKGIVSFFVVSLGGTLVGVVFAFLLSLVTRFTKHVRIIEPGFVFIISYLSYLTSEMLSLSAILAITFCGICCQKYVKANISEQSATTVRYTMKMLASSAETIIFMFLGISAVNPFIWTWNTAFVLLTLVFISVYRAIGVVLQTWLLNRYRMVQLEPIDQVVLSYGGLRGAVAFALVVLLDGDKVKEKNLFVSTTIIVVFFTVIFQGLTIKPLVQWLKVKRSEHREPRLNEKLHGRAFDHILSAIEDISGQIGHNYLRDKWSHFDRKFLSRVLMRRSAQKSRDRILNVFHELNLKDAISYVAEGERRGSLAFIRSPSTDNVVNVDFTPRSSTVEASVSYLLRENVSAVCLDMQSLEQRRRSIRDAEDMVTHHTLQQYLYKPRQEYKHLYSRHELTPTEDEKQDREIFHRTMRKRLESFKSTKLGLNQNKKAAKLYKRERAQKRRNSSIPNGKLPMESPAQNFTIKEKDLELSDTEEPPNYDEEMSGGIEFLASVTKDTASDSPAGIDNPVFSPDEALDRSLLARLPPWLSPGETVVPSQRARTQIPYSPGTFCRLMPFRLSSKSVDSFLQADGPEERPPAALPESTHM

Human NHE3 [4] = biological target: T2, Human NHE3; test: Cell-based NHE3 activity under prompt conditions (OK cells, BCECF pH recovery), human NHE3; conditions: for pIC50 Prompt: Table E6, NHE3 species not stated
How it was run: as §1

[5] = system: absorption of sodium from the intestinal lumen; test: Fecal form score (FFS) 16 h after oral dose in rats; type: in vivo, rat; conditions: in words
How it was run: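 Fecal form was scored at 16 h post-dose on a 1–5 wetness scale (normal pellet to liquid stream), with two independent observations averaged across six rats per group. Animals were 8-week-old Sprague-Dawley rats given test compound or water orally in the late afternoon and kept in metabolic cages.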

NHE-2 = biological target: T3, NHE-2 (Rattus norvegicus, UniProt P48763); conditions: * = from rat; read-out: IC50 or Ki NHE-2; cited from earlier work
T3 sequence (P48763 1-813): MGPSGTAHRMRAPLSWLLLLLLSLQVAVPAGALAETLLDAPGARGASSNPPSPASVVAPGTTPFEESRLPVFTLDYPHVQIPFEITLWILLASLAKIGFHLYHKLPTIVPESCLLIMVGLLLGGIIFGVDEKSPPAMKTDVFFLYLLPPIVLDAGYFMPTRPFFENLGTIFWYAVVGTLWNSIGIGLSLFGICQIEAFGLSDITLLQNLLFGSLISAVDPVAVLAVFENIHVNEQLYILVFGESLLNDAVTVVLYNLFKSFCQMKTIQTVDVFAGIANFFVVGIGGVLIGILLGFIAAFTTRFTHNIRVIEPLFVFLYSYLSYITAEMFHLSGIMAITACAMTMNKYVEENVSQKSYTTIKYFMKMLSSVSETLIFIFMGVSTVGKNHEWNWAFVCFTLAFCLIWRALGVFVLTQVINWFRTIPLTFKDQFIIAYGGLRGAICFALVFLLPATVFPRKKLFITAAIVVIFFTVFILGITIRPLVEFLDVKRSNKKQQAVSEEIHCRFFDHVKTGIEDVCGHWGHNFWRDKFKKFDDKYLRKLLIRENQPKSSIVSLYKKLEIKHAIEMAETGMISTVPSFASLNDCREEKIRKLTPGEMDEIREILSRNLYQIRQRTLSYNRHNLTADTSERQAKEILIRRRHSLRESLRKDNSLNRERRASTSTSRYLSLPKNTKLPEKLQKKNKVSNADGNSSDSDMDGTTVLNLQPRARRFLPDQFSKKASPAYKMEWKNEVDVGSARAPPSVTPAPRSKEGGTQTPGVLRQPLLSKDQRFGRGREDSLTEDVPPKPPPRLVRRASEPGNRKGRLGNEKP

NHE-1 = NHE-1 (Homo sapiens, UniProt P19634); test: NHE isoform inhibition, Table 2 adapted from Masereel et al.: NHE-1, species not marked; type: biochemical; conditions: from Table 2 values
Description: Shown below are examples of various NHE binding small molecules and their selectivity across the NHE-1, -2 and -3 isoforms. (See, e.g., B. Masereel et al., An Overview of Inhibitors of Na+/H+ Exchanger, European J. of Med. Chem., 38, pp. 547-554 (2003), the entire contents of which is incorporated by reference here for all relevant and consistent purposes). […] It is thus possible to engineer NHE3 binding selectivity into a chemical series optimized for potency against another antiporter isoform; that is, the inhibitor classes exemplified in the art may be suitably modified for activity and selectivity against NHE3 (or alternatively NHE-2 and/or NHE-8), as well as being optionally modified to be rendered substantially impermeable or substantially systemically non-bioavailable.

T1 sequence (P26433 29-831): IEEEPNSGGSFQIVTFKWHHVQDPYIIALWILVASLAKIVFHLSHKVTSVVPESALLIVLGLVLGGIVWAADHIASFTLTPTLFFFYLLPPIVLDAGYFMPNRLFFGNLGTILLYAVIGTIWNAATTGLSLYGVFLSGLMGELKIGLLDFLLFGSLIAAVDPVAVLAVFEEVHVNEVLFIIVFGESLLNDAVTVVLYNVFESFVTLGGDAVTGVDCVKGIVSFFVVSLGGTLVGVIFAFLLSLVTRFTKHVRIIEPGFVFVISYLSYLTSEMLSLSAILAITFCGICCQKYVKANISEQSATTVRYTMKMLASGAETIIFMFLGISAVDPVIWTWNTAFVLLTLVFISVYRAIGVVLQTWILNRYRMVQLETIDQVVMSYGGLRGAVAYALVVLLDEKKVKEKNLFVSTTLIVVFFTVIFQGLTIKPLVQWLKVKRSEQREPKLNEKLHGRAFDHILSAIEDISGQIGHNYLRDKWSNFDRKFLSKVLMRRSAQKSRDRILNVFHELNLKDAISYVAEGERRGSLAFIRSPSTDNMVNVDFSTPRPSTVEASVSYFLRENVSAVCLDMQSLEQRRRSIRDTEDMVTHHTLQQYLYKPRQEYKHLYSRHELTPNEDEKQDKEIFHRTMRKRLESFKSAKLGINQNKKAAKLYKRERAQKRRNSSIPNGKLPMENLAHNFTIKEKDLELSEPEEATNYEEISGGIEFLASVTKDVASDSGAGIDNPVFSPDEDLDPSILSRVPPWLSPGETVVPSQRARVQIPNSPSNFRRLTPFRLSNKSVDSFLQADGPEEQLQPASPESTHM
Chain of NHE-1 (P19634 whole entry, species assumed, canonical isoform): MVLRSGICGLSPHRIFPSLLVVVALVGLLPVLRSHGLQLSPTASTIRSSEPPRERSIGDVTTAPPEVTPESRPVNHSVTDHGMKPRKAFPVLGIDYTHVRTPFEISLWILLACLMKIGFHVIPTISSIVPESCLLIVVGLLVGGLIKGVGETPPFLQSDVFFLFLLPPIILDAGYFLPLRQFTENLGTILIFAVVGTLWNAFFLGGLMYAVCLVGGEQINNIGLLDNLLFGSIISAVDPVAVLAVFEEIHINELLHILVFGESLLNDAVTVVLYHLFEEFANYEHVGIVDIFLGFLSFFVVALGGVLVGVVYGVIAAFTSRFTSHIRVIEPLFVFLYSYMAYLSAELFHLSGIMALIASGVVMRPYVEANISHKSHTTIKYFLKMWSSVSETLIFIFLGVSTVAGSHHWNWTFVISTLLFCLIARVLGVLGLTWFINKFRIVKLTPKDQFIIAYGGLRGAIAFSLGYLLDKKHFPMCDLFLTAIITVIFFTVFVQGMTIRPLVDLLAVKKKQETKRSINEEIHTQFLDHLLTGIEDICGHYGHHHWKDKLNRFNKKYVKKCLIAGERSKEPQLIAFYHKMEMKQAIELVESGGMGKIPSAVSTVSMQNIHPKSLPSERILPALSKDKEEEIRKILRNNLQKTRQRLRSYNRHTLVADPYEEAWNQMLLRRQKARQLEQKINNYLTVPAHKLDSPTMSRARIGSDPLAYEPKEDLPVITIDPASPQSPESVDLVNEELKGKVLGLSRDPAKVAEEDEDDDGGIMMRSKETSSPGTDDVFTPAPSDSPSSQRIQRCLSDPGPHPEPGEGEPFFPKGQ

For `CN1Cc2c(Cl)cc(Cl)cc2[C@H](c2cccc(S(=O)(=O)NCCOCCOCCNC(=O)Nc3ccc(NC(=O)NCCOCCOCCNS(=O)(=O)c4cccc([C@@H]5CN(C)Cc6c(Cl)cc(Cl)cc65)c4)cc3)c2)C1` [Cpd 003], which “effect on urinary Na (UNa)” value ([1]; in words) is on record?
The value was “significant reduction in UNa”.

What about the “UNa (%)” value ([1]; single oral dose 1 mg/kg) of the same compound?
The value was 22 @ 1 mg/kg %.

What about the “Pi uptake after 33P oral challenge” value [2] of the same compound?
Its value is “reducing Pi uptake”.

And the “Pi uptake after 33P oral challenge in the presence of Ca” value ([2]; 4 mM Ca, FIG. 1C)?
Its value is “significantly reduced Pi uptake”.

What about the “Pi uptake after 33P oral challenge in the presence of glucose/Ca” value ([2]; 75 mM glucose + 4 mM Ca, FIG. 1B) of the same compound?
The value was “significantly reduced Pi uptake”.

And the “Rat NHE3 pIC50 Prompt” value (Rat NHE3)?
Its value is 8.6.

What about the “Human NHE3 pIC50 Persistent” value (Human NHE3 [3]) of the same compound?
Its value is 8.1.

What about the “Human NHE3 pIC50 Prompt” value (Human NHE3 [4]; Table E5, 001 free base, 002-005 dihydrochloride salt) of the same compound?
The value was 8.

What about the “pIC50 Prompt” value (Human NHE3 [4]) of the same compound?
The value was 8.

What about the “effect on fecal form” value [5] of the same compound?
Its value is “change in fecal form”.

Which “UNa (%)” value ([1]; single oral dose 10 mg/kg) does the source give for `CN1Cc2c(Cl)cc(Cl)cc2[C@@H](c2cccc(S(=O)(=O)NCCOCCOCCNC(=O)NCCCCNC(=O)NCCOCCOCCNS(=O)(=O)c3cccc([C@@H]4CN(C)Cc5c(Cl)cc(Cl)cc54)c3)c2)C1` [Cpd 005] here?
The value was 90 @ 10 mg/kg %.

What about the “Pi uptake after 33P oral challenge” value [2] of the same compound?
Its value is “inactive”.

And the “Rat NHE3 pIC50 Prompt” value (Rat NHE3)?
Its value is less than 5.0.

And the IC50 (Human NHE3 [4]; Table E5, 001 free base, 002-005 dihydrochloride salt, read-out: Human NHE3 pIC50 Prompt (converted))?
The IC50 was greater than 10000 nM.

What about the “pIC50 Prompt” value (Human NHE3 [4]) of the same compound?
Its value is less than 5.0.

With `CCN(c1nc(N)c(C(=O)NC(=N)N)nc1Cl)C(C)C` [EIPA, ethyl isopropyl amiloride] as the compound, how does the IC50 (NHE-2) read?
The IC50 was 80 nM.

For `C/C(=C\c1cccc(/C=C(\C)C(=O)NC(=N)N)c1)C(=O)N=C(N)N` [S-2120], which “selectivity: more active against NHE-1 than NHE3” value (NHE-1) is on record?
The value was “over 500 fold”.

Which “selectivity: more active against NHE-1 than NHE3” value (NHE-1) does the source give for `C/C(=C\c1cc(C)ccc1/C=C(\C)C(=O)NC(=N)N)C(=O)N=C(N)N` [S-3226] here?
The value was “selectivity is reversed”.
